Results published in paper PMC5823845 (Bioorganic & Medicinal Chemistry, 2018).
Read-outs that look alike come from different tables or passages of the source.

Key:
mouse RAR beta receptor = target: T1, mouse RAR beta receptor (Mus musculus, UniProt P22605); conditions: ratio of relative EC50s RARβ/RARα
T1 sequence (P22605 210-444 limits assumed): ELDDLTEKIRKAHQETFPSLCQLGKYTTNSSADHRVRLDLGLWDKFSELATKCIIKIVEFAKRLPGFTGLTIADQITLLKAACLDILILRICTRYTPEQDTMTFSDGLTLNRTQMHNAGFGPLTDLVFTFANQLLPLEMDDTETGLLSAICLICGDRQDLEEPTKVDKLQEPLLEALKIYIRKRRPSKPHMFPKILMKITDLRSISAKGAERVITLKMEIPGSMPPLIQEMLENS

mouse RAR gamma receptor = target: T2, mouse RAR gamma receptor (Mus musculus, UniProt P18911)
T2 sequence (P18911 185-419 limits assumed): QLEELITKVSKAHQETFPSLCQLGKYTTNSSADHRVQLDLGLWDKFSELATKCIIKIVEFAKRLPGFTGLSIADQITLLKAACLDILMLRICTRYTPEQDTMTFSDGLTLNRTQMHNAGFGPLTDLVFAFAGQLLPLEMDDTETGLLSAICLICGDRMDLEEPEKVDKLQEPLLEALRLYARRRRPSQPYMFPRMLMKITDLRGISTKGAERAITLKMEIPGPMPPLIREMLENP

[1] = Log D pH 7.4, octanol/buffer shake flask method
Experimental: Briefly, octanol (pre-saturated with buffer) is added to the test compound and sonicated. Buffer at pH 7.4 (presaturated with octanol) is then added to the octanol. […] The system is mixed to allow distribution of the compound between the two phases.
Log D = Log (Coct / Caq ). Where: Coct = Concentration in octanol sample (corrected for dilution) and Caq = Concentration in aqueous sample (corrected for dilution)

[2] = Intrinsic clearance in liver microsomes; assay type: in vitro ADME; conditions: 37 °C, NADPH, 45 min, mean of 5
Experimental: The reaction is terminated by the addition of methanol. Following centrifugation, the supernatant is analyzed on the LC-MS/MS. […] The data is the mean on 5 separate experiments.
The ln peak area ratio (compound peak area/internal standard peak area) is plotted against time and the gradient of the line determined.
(see Supplementary data file for details).

PK studies in rats = assay type: in vivo, Sprague-Dawley rats; conditions: for rat pK AUC po: 10 mg/kg po, 8% Ethanol/92% PEG-400, n = 4; for rat pK Cl: iv 0.5 mg/kg; for rat pK Cl / bioavailability: n = 4; for bioavailability: male, Sprague-Dawley, whole blood, rat, 10 mg/kg po vs 0.5 mg/kg iv, read-out: rat pK F%
Experimental: The Test Items were orally administered at a dose of 10 mg/kg and a dosing volume of 10 mL/kg. […] The Test Items were intravenously administered at a dose of 0.5 mg/kg and a dosing volume of 2 mL/kg. […] Whole blood concentrations of the Test Items were measured using LC-MS/MS and selected pharmacokinetic parameters calculated using Pharsight WinNonLin software. For furthers details see Supplementary data file.

mouse RAR alpha receptor = target: T3, mouse RAR alpha receptor (Mus musculus, UniProt P11416); conditions: relative to the amplitude of the normalizing ATRA output
T3 sequence (P11416 183-417 limits assumed): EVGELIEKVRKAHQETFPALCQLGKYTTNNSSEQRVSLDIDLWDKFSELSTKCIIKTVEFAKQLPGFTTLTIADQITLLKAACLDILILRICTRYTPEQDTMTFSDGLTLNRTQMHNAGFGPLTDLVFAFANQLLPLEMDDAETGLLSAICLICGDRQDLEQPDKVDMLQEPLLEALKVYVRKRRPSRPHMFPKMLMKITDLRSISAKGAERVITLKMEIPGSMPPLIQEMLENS

[3] = mouse, ratio of relative EC50s RARγ/RARα
[4] = liver microsomes, human microsomes
[5] = liver microsomes, mouse microsomes

SMILES	β/α ratio (mouse RAR beta receptor)	γ/α ratio (mouse RAR gamma receptor; [3])	logD [1]	microsomal CLint [2, 4] [µL/min/mg]	microsomal CLint [2, 5] [µL/min/mg]	other results
CC1(C)CCC(C)(C)c2c1cc(C(=O)Nc1cc(F)c(C(=O)O)c(F)c1)c(O)c2Cl [Compound 4, reference compound]	141	–	–	–	–	γ/α ratio (mouse RAR gamma receptor): 867
CCCOc1c(Cl)cc(C(=O)Nc2ccc(C(=O)O)cc2)cc1Cl [Compound 12]	9.5	82	–	–	–	–
CCCCOc1c(Cl)cc(C(=O)Nc2ccc(C(=O)O)cc2)cc1Cl [Compound 13]	8.5	18	–	–	–	–
CC(C)Oc1c(Cl)cc(C(=O)Nc2ccc(C(=O)O)cc2)cc1Cl [Compound 14]	205	119	–	–	–	–
O=C(O)c1ccc(NC(=O)c2cc(Cl)c(OC3CCCC3)c(Cl)c2)cc1 [Compound 15, 4-(3,5-Dichloro-4-(cyclopentyloxy)benzamido)benzoic acid]	–	–	2.8	26	83	rat pK AUC po (PK studies in rats): 1674 ng·min mL^−1; rat pK Cl (PK studies in rats): 2 mL/kg/min; bioavailability (PK studies in rats): 0.3%
CC(C)(C)Oc1c(Cl)cc(C(=O)Nc2ccc(C(=O)O)cc2)cc1Cl [Compound 16, 4-(4-(tert-Butoxy)-3,5-dichlorobenzamido)benzoic acid]	–	–	2.6	16	91	–
CCOc1c(Cl)cc(C(=O)Nc2ccc(C(=O)O)c(F)c2)cc1Cl [Compound 17]	80	>80	–	–	–	–
CCOc1c(Cl)cc(C(=O)Nc2ccc(C(=O)O)c(C)c2)cc1Cl [Compound 18, 4-(3,5-Dichloro-4-ethoxybenzamido)-2-methylbenzoic acid]	–	–	1.7	14	38	rat pK AUC po (PK studies in rats): 74,396 ng·min mL^−1; rat pK Cl (PK studies in rats): 1.6 mL/kg/min; bioavailability (PK studies in rats): 12%
CCOc1c(Cl)cc(C(=O)Nc2ccc(C(=O)O)c(O)c2)cc1Cl [Compound 19, 4-(3,5-Dichloro-4-ethoxybenzamido)-2-hydroxybenzoic acid]	37	149	–	–	–	–
CCOc1c(Cl)cc(C(=O)Nc2ccc(C(=O)O)c(Cl)c2)cc1Cl [Compound 20]	64	>50	–	–	–	–
CCOc1c(Cl)cc(C(=O)Nc2ccc(C(=O)O)c(C(F)(F)F)c2)cc1Cl [Compound 21]	1.5	11	–	–	–	–
CCOc1c(Cl)cc(NC(=O)c2ccc(C(=O)O)cc2)cc1Cl [Compound 26, 4-(3,5-Dichloro-4-ethoxyphenylcarbamoyl)benzoic acid]	12	>3600	–	–	–	–
CCOc1c(OC2CCCC2)cc(C(=O)Nc2ccc(C(=O)O)cc2)cc1OC1CCCC1 [Compound 32]	145	19	–	–	–	RARα agonist type (partial / full agonist) (mouse RAR alpha receptor): partial agonist activity
CC(C)Oc1cc(C(=O)Nc2ccc(C(=O)O)cc2)cc(OC(C)C)c1OC(C)C [Compound 33]	96	8	–	–	–	RARα agonist type (partial / full agonist) (mouse RAR alpha receptor): partial agonist activity
CCOc1cc(C(=O)Nc2ccc(C(=O)O)cc2)cc(OC(C)C)c1OCC [Compound 34]	84	34	–	–	–	RARα agonist type (partial / full agonist) (mouse RAR alpha receptor): full RARα agonist
O=C(O)c1ccc(NC(=O)c2cc(Cl)c(OC3CCC3)c(OC3CCC3)c2)cc1 [Compound 40]	22	447	–	–	–	–

SMILES	β/α ratio (mouse RAR beta receptor)	γ/α ratio (mouse RAR gamma receptor; [3])	logD [1]	microsomal CLint [2, 4] [µL/min/mg]	microsomal CLint [2, 5] [µL/min/mg]	other results
CC(C)(C)Oc1cc(C(=O)Nc2ccc(C(=O)O)cc2)cc(Cl)c1OC(C)(C)C [Compound 41, 4-(3,4-Di-tert-butoxy-5-chlorobenzamido)benzoic acid]	44	189	–	–	–	–
O=C(O)c1ccc(NC(=O)c2cc(Cl)c(OC3CCCC3)c(OC3CCCC3)c2)cc1 [Compound 42, 4-[3-Chloro-4,5-bis(cyclopentyloxy)benzamido]benzoic acid]	32	336	–	–	–	–
CC(C)Oc1cc(C(=O)Nc2ccc(C(=O)O)c(F)c2)cc(Cl)c1OC(C)C [Compound 43]	34	300	2	6.9	18.8	–
Cc1cc(NC(=O)c2cc(Cl)c(OC(C)C)c(OC(C)C)c2)ccc1C(=O)O [Compound 44]	45	2947	2.3	15	26.2	rat pK AUC po (PK studies in rats): 77,670 ng·min mL^−1; rat pK Cl (PK studies in rats): 5.4 mL/kg/min; bioavailability (PK studies in rats): 66%
Cc1cc(NC(=O)c2cc(Cl)c(OC(C)(C)C)c(OC(C)(C)C)c2)ccc1C(=O)O [Compound 45]	–	128	2.9	–	–	microsomal CLint ([2]; human microsomes): 28.7 µL/min/mg; microsomal CLint ([2]; mouse microsomes): 36.2 µL/min/mg
CCOc1c(Cl)cc(C(=O)Nc2ccc(C(=O)O)cc2)cc1OC(C)C [Compound 49, 4-(3-Chloro-4-ethoxy-5-isopropoxybenzamido)benzoic acid]	–	–	1.7	11	41	RARα agonist type (partial / full agonist) (mouse RAR alpha receptor): partial agonist
CCOc1cc(C(=O)Nc2ccc(C(=O)O)cc2)cc(Cl)c1OC(C)C [Compound 52]	3.1	570	–	–	–	–
COc1c(Cl)cc(C(=O)Nc2ccc(C(=O)O)c(F)c2)cc1OC(C)C [Compound 53]	609	17,600	1	0.3	11	rat pK AUC po (PK studies in rats): 10,871 ng·min mL^−1; rat pK Cl (PK studies in rats): 15 mL/kg/min; bioavailability (PK studies in rats): 15%
CCOc1c(Cl)cc(C(=O)Nc2ccc(C(=O)O)c(F)c2)cc1OC(C)C [Compound 54]	487	6169	1.4	3.3	17.9	rat pK AUC po (PK studies in rats): 15,376 ng·min mL^−1; rat pK Cl (PK studies in rats): 12 mL/kg/min; bioavailability (PK studies in rats): 12%
COc1c(Cl)cc(C(=O)Nc2ccc(C(=O)O)c(C)c2)cc1OC(C)C [Compound 55]	241	509	1.3	1.5	10.6	RARα agonist type (partial / full agonist) (mouse RAR alpha receptor): partial RARα agonist activity
CCOc1cc(C(=O)Nc2ccc(C(=O)O)c(C)c2)cc(Cl)c1OC(C)C [Compound 57]	286	1675	1.9	8.7	25.7	–
CCOc1c(Cl)cc(C(=O)Nc2ccc(C(=O)O)c(C)c2)cc1OC [Compound 58]	210	>250	–	–	18.4	–
CCOc1c(Cl)cc(C(=O)Nc2ccc(C(=O)O)c(C)c2)cc1OCC1CC1 [Compound 59]	58	38,461	–	–	42.3	–
O=C(O)c1ccc(NC(=O)c2cc(Cl)c(O)c(Cl)c2)cc1 [Compound 60]	7	55	–	–	–	–
COc1c(Cl)cc(C(=O)Nc2ccc(C(=O)O)cc2)cc1Cl [Compound 61]	318	195	–	–	–	–
CCOc1cc(C(=O)Nc2ccc(C(=O)O)cc2)cc(OCC)c1OCC [Compound 62]	174	16	–	–	–	–
